# Experimental data: US7314621B2, “Cytidine deaminase” (Kyoto University, priority 1999, dated 2008)
# Assays:
# AID protein = target: T1, AID protein (Mus musculus, UniProt Q9WVE0); experiment: Inhibition of the cytidine deaminase activity of the AID-GST fusion protein; type: biochemical; details: for inhibition of the cytidine deaminase activity of AID protein: 20 mM printed for 1,10-o-phenanthroline, both isomers tested 0 to 20 mM; for inhibition of the cytidine deaminase activity of AID protein (in words): zinc chelator and inactive isomer
# T1 construct: a full length AID cDNA was expressed as a fusion protein with glutathione S-transferase (GST); made in house; host or cells: E. coli DH5alpha
# Protocol: The purified AID-GST fusion protein prepared in the above (2, 4, 6, 8, 10, 20, 40, 60, 100, 200, 300, 400, and 600 ng) was incubated in the buffer (pH 7.5, the total amount 10 μl) containing 45 mM Tris with 3.3 μCi [^3H] deoxycytidine (24.8 Ci/mmol, DuPont) and 250 μM cytidine for 2 to 4 hours. The reaction was terminated by adding deoxycytidine (2 μl of 10 μg/ml) and deoxyuridine (2 μl of 10 μg/ml). Insoluble substances were removed by centrifugation, and the reaction mixture (4 μl) was subjected to the polyethylene imine-cellulose thin layer chromatography plate (VWR). The plate was developed in isopropyl alcohol/10% HCl (7:2 v/v). The plate was exposed to ultraviolet light (254 nm) for visualization and bands corresponding to deoxycytidine and deoxyuridine were collected, and added to Ultima Gold scintillation solution to be quantified by liquid scintillation photometer (Packard)
# [1] = system: mouse B cell clone CH12F3-2; experiment: Production of looped-out circular DNA by class switch recombination (PCR, Southern hybridization); type: cell-based; details: cycloheximide 200 ng/ml, 6 hours, stimulation with IL-4, TGF-β, CD40L
# Protocol: CH12F3-2 B cells, either stimulated by IL-4, TGF-β, and CD40L or unstimulated, were cultured for 6 hours in the presence or absence of cycloheximide (200 ng/ml) which is a protein synthesis inhibitor, respectively. Genomic DNA was extracted from each cell, and PCR was conducted with the DNA as a template following standard methods to amplify circular DNA including an Sμ sequence and an Sα sequence. PCR was conducted using pairs of primers, αF1 and […], or αF1 and […].
# As a control, genomic DNA encoding glyceraldehyde-3-phosphate dehydrogenase (GAPDH) was amplified by PCR.
# The PCR products were subjected to gel electrophoresis and ethidium bromide staining. FIG. 1(a) and FIG. 2(a) show the results.
# To confirm the presence or absence of the amplification of a circular DNA including the looped-out S region, Southern hybridization was conducted against the PCR products using a mouse Sa region gene as a hybridization probe, according to standard methods (L. Sambrook E. F., Tom Maniatis., Second edition, Ed. Molecular Cloning (Nolan, C., Ed.) Cold Spring Harbor, 1989). A 1,155 bp DNA fragment obtained by digesting 10 kb EcoRI cleaved fragment IgH703 with Hind III and Earl was used as an Sα gene (Genbank #D11468, DNA No. 1993-3148) (J, Biol. Chem., Vol. 268, p. 4651-4665). FIGS. 1(b) and 2(b) show the results.
# [2] = system: AID mRNA in mouse B cell clone CH12F3-2; experiment: Cytokine-induced AID (23C9) mRNA expression, Northern blotting; type: cell-based; details: cycloheximide 200 ng/ml, 12 hours, IL-4, TGF-β, CD40L
# Protocol: The degree of enhanced expression of the gene coding for a novel protein 23C9 in mouse B cell clone CH12F3-2 stimulated with IL-4, TGF-β and CD40L was analyzed according to the standard method (L. Sambrook, E. F., Tom Maniatis., Second edition, Ed. Molecular Cloning (Nolan, C., Ed.), Cold Spring Harbour, 1989) by Northern blotting.
# Mouse B cell clone CH12F3-2 was cultured in the presence of one of the following regents for 12 hours. • (1) IL-4, TGF-β and CD40L only. • (2) Cycloheximide which is a protein synthesis inhibitor (200 ng/ml), only • (3) IL-4, TGF-β and CD40L as well as Cycloheximide (200 ng/ml)
# Northern blotting was conducted against mRNA (10 μg for each group) obtained in the same manner as previously reported (Nucleic Acid Res., 26:911-918, 1998) from each group of treated cells using a radio-labeled cDNA fragment (1,020 bp) coding for a novel protein 23C9, obtained in the above Example, according to the standard method (L. Sambrook, E. F., Tom Maniatis., Second edition, Ed. Molecular Cloning (Nolan, C., Ed.), Cold Spring Harbour, 1989).
# As a control experiment, Northern blotting was conducted for mRNA derived from B cell clone CH12F3-2 cultured without any one of the above cytokines, or cycloheximide.
# The amount of mRNA to be electrophoresed was adjusted using the amount of mRNA for glyceraldehyde-3-phosphate dehydrogenase (GAPDH) as an index. […]
# T1 sequence (Q9WVE0 whole entry, the tested form may be a part): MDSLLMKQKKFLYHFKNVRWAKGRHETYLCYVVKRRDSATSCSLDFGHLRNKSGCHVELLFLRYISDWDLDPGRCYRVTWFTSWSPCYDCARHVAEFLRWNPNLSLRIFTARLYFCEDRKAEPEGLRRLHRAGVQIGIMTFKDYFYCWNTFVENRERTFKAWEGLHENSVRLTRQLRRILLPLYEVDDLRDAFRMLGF
Compound,inhibition of the cytidine deaminase activity of AID protein (AID protein),inhibition of the cytidine deaminase activity of AID protein (in words) (AID protein),production of looped-out DNA containing the Sα sequence with class switch recombination [1],induction of AID mRNA expression by cytokines [2]
"c1cnc2c(c1)ccc1ncccc12 [1,7-o-phenanthroline]",about 13%,weak inhibition,–,–
"c1cnc2c(c1)ccc1cccnc12 [1,10-o-phenanthroline]",about 91%,inhibits,–,–
C[C@@H]1C[C@@H]([C@H](O)CC2CC(=O)NC(=O)C2)C(=O)[C@@H](C)C1 [cycloheximide],–,–,inhibited,can be inhibited
